Source: patent US20110076283A1, “METHOD FOR PREDICTING AND DIAGNOSING BRAIN TUMOR” (Universite De Lausanne, priority 2008, published 2011)

How the values were obtained:
glioblastoma [1] = settings: glioblastoma patients; in particular with epigenetically silenced MGMT gene; cited from earlier work
glioblastoma [2] = test: Multivariate Cox proportional hazards model of the treatment effect on survival (chemoradiotherapy versus radiotherapy alone) in glioblastoma patients; type: in vivo, human; settings: MGMT-methylated patients, multivariate Cox model N = 68
Method: Gene expression profiles were established from 80 frozen GBM samples obtained from 76 patients, comprising 70 tumors from initial surgery, and 10 samples resected at recurrence, and from four non-neoplastic brain tissue samples. All patients were treated within a phase II, or a randomized phase III trial {Stupp, 2005 #2126} and provided written informed consent for molecular studies of their tumor. The protocol was approved by the ethics committee at each center. Sixty-eight patients with complete molecular and clinical information were included in survival analysis, with a median age of 51 years (range: 26-70 yrs) at enrollment. Thereof, 42 received TMZ/RT→TMZ, while 26 were randomized to RT only. Second-line therapy frequently involved alkylating agents including TMZ. The validation set comprised 76 independent patients of the EORTC/NCIC-study (Stupp et al., 2005), 39 randomized to TMZ/RT→TMZ, and 37 to RT (median age 54 yrs, range 25-69 yrs), whose GBM were available on a tissue microarray. There was no difference in survival as compared to the general trial population, neither in the test population, nor the validation set (P>0.2).
For each covariate, the hazards ratio, its 95% confidence interval and the associated Wald p-value were examined The Benjamini Hochberg procedure ^s was applied as multiple testing correction method to convert p-values into estimated false discovery rates (FDR). The hazards ratio for a gene (or the mean of a cluster) were standardized by referring them to a variation corresponding to an interquartile range, in order to obtain an interpretable value, for microarray as well as for real-time PCR data. Therefore, the interpretation of an estimated hazard ratio of 1.5 is that the hazard rate increases by 50 percent for an increase of one interquartile range of the log-scale gene expression, independently of the expression level at which it is calculated.
The log-hazard function was defined as:
g(t,X,TMZ,MGMT,age,β)=ln [h0(t)]+β1X+β2TMZ+β3MGMT+β4age+β5(X*TMZ)+β6(TMZ*MGMT) […]

glioblastoma [3] = settings: in conjunction with TMZ/RT→TMZ; patients with a methylated MGMT gene promoter; cited from earlier work

Structure (SMILES) | survival (glioblastoma [1]) | Estimated Hazard Ratios (HR) for Treatment Effect (glioblastoma [2]; G98 expression level 1st quartile) | Estimated Hazard Ratios (HR) for Treatment Effect (glioblastoma [2]; G98 expression level 3rd quartile) | Estimated Hazard Ratios (HR) for Treatment Effect (glioblastoma [2]; G98 expression level median) | anti-tumor activity (glioblastoma [3])
Cn1nnc2c(C(N)=O)ncn2c1=O [TMZ/RT→TMZ, temozolomide] | significantly prolong survival | 0.13 | 0.47 | 0.25 | –
CC(C)[C@H]1C(=O)N[C@@H](CCCN=C(N)N)C(=O)NCC(=O)N[C@@H](CC(=O)O)C(=O)N[C@H](Cc2ccccc2)C(=O)N1C [cilengitide] | – | – | – | – | increased anti-tumor activity
